Reference: patent publication US20240158370A1, “CK1 alpha AND DUAL CK1 alpha / GSPT1 DEGRADING COMPOUNDS” (Innovo Therapeutics, Inc., priority 2022, published 2024)

Legend:
CK1α = target: T1, CK1α (Homo sapiens, UniProt P48729+Q96SW2); test: HiBiT degradation assay, CK1α, Procedure A; assay type: cell-based; conditions: six hours
T1 construct: CSNK1A1-HiBit KI HEK293(LgBit) Cells; host or cells: HEK293(LgBit) knock-in cells
Outline: (§1)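 Luminescence from HiBiT lytic detection reports remaining tagged protein after cells sit six hours at 37° C with compound across ten concentrations (10 μM down to 0.005 μM, 0.1% DMSO). A 4-parameter curve fit gives DC50 and Ymin.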

GSPT1 = GSPT1 (Homo sapiens, UniProt P15170+Q96SW2); test: HiBiT degradation assay, GSPT1, Procedure A; assay type: cell-based; set-up: HiBit-GSPT1 KI HEK293(LgBit) Cells; host or cells: HEK293(LgBit) knock-in cells; conditions: six hours
Outline: as §1

T1 sequence (P48729 whole entry): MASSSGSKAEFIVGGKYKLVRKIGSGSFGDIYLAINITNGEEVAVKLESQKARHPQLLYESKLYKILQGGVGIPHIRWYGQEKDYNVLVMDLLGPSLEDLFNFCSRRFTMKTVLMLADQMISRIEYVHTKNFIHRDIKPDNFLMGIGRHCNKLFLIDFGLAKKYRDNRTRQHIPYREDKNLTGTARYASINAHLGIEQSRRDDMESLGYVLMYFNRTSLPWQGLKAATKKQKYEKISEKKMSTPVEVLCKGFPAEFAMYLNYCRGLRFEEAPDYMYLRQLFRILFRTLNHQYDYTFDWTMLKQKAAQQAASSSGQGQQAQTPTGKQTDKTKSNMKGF
T1 sequence (Q96SW2 whole entry): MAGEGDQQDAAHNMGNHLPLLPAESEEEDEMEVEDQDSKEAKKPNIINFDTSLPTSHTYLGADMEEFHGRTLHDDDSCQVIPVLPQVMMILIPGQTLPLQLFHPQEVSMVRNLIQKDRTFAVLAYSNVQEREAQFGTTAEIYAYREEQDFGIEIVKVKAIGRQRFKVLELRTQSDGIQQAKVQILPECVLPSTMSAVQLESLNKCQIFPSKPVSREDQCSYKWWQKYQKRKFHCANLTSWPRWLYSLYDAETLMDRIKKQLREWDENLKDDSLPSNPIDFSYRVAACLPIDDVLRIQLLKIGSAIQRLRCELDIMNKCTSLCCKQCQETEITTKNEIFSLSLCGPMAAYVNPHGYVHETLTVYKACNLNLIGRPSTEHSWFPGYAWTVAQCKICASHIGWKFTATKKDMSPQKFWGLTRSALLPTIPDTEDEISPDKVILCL
T1 sequence (Q16531 whole entry partner): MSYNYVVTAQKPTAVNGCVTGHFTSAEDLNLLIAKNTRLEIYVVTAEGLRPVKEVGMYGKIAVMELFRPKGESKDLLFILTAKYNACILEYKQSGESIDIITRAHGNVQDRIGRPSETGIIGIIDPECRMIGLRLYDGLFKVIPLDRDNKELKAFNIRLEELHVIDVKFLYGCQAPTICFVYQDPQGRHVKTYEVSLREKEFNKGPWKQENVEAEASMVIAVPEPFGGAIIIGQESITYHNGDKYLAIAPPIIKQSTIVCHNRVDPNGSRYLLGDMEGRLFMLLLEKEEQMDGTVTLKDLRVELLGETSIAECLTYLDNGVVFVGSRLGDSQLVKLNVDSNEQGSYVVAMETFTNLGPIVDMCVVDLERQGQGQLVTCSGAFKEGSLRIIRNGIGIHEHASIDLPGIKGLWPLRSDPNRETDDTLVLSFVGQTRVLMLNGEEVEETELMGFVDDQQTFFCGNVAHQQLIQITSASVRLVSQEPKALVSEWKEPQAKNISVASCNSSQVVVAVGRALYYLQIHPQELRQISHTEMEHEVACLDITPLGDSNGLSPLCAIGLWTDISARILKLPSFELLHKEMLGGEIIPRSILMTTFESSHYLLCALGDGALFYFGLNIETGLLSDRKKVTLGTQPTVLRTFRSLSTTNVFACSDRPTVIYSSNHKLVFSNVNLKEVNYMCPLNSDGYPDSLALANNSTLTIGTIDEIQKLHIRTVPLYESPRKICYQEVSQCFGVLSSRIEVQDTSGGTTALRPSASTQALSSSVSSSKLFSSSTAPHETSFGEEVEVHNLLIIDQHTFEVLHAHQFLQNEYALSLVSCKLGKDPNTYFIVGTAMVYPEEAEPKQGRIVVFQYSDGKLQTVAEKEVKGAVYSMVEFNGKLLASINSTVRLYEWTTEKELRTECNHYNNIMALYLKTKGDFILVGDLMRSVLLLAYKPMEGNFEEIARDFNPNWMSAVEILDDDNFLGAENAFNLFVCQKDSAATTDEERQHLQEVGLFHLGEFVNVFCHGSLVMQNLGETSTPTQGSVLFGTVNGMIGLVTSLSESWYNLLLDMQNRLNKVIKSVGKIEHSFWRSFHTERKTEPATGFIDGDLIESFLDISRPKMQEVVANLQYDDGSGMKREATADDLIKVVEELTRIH
Chain of GSPT1 (P15170 whole entry): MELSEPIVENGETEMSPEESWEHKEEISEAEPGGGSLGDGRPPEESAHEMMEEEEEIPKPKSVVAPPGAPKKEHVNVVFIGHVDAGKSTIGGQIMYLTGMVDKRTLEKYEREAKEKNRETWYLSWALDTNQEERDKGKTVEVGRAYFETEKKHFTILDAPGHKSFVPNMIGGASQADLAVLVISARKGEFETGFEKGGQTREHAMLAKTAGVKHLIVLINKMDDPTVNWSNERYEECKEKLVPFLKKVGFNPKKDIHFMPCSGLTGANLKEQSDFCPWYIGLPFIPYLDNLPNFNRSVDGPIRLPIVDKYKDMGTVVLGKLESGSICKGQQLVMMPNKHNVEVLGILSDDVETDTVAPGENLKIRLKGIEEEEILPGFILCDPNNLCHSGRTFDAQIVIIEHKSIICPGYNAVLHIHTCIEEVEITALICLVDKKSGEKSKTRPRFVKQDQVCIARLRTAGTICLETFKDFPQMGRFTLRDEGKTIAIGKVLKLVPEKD
Chain of GSPT1 (Q96SW2 whole entry): as the sequence (Q96SW2 whole entry) above
Chain of GSPT1 (Q16531 whole entry partner): as the sequence (Q16531 whole entry partner) above

## Cn1ncc(-c2ccc3c(c2)CN(C2CCC(=O)NC2=O)C3=O)c1-c1ccc(OC(F)F)cc1 (centres unmarked) [Example 416, 3-(5-(5-(4-(difluoromethoxy)phenyl)-1-methyl-1H-pyrazol-4-yl)-1-oxoisoindolin-2-yl)piperidine-2,6-dione]
CK1α
  CK1α Ymin: E (E = >25-75% remaining)
  DC50: < 0.025 µM
GSPT1
  DC50: ≥ 0.025 µM
  GSPT1 Ymin: F (F = >75-100% remaining)

## COc1ccc(-c2c(-c3ccc4c(c3)CN(C3CCC(=O)NC3=O)C4=O)cnn2C(F)F)cc1F (centres unmarked) [Example 417, 3-(5-(1-(difluoromethyl)-5-(3-fluoro-4-methoxyphenyl)-1H-pyrazol-4-yl)-1-oxoisoindolin-2-yl)piperidine-2,6-dione]
CK1α
  CK1α Ymin: D (D = >10- 25% remaining)
  DC50: < 0.025 µM
GSPT1
  DC50: ≥ 0.025 µM
  GSPT1 Ymin: F (F = >75-100% remaining)

## COc1ccc(-c2c(-c3ccc4c(c3)CN(C3CCC(=O)NC3=O)C4=O)cnn2C(F)F)cc1 (centres unmarked) [Example 418, 3-(5-(1-(difluoromethyl)-5-(4-methoxyphenyl)-1H-pyrazol-4-yl)-1-oxoisoindolin-2-yl)piperidine-2,6-dione]
CK1α
  CK1α Ymin: C (C = 0-10% remaining)
  DC50: < 0.025 µM
GSPT1
  DC50: ≥ 0.025 µM
  GSPT1 Ymin: E (E = >25-75% remaining)

## Cn1c(C2OCCCO2)nc(-c2ccc3c(c2)CN(C2CCC(=O)NC2=O)C3=O)c1-c1ccccc1 (centres unmarked) [Example 419, 3-(5-(2-(1,3-dioxan-2-yl)-1-methyl-5-phenyl-1H-imidazol-4-yl)-1-oxoisoindolin-2-yl)piperidine-2,6-dione]
CK1α
  CK1α Ymin: C (C = 0-10% remaining)
  DC50: < 0.025 µM
GSPT1
  DC50: ≥ 0.025 µM
  GSPT1 Ymin: F (F = >75-100% remaining)

## Cn1c(C2CCOCC2)nc(-c2ccc3c(c2)CN(C2CCC(=O)NC2=O)C3=O)c1-c1cccnc1 (centres unmarked) [Example 420, 3-(5-(1-methyl-5-(pyridin-3-yl)-2-(tetrahydro-2H-pyran-4-yl)-1H-imidazol-4-yl)-1-oxoisoindolin-2-yl)piperidine-2,6-dione]
CK1α
  CK1α Ymin: C (C = 0-10% remaining)
  DC50: < 0.025 µM
GSPT1
  DC50: ≥ 0.025 µM
  GSPT1 Ymin: F (F = >75-100% remaining)

## O=C1CCC(N2Cc3cc(-c4cn(C(F)F)nc4-c4ccc5c(c4)CCO5)ccc3C2=O)C(=O)N1 (centres unmarked) [Example 423, 3-(5-(1-(difluoromethyl)-3-(2,3-dihydrobenzofuran-5-yl)-1H-pyrazole-4-yl)-1-oxoisoindolin-2-yl)piperidine-2,6-dione]
CK1α
  CK1α Ymin: D (D = >10- 25% remaining)
  DC50: < 0.025 µM
GSPT1
  DC50: ≥ 0.025 µM
  GSPT1 Ymin: F (F = >75-100% remaining)

## O=C1CCC(N2Cc3cc(-c4cnn(C(F)F)c4-c4ccc5c(c4)CCO5)ccc3C2=O)C(=O)N1 (centres unmarked) [Example 424, 3-(5-(1-(difluoromethyl)-5-(2,3-dihydrobenzofuran-5-yl)-1H-pyrazol-4-yl)-1-oxoisoindolin-2-yl)piperidine-2,6-dione]
CK1α
  CK1α Ymin: D (D = >10- 25% remaining)
  DC50: < 0.025 µM
GSPT1
  DC50: ≥ 0.025 µM
  GSPT1 Ymin: F (F = >75-100% remaining)

## COc1ccc(-c2nn(C(F)F)cc2-c2ccc3c(c2)CN(C2CCC(=O)NC2=O)C3=O)c(Cl)c1 (centres unmarked) [Example 425, 3-(5-(3-(2-chloro-4-methoxyphenyl)-1-(difluoromethyl)-1H-pyrazol-4-yl)-1-oxoisoindolin-2-yl)piperidine-2,6-dione]
CK1α
  CK1α Ymin: D (D = >10- 25% remaining)
  DC50: < 0.025 µM
GSPT1
  DC50: ≥ 0.025 µM

## CC(C)n1ncc(-c2ccc3c(c2)CN(C2CCC(=O)NC2=O)C3=O)c1-c1ccccc1 (centres unmarked) [Example 426, 3-(5-(1-isopropyl-5-phenyl-1H-pyrazol-4-yl)-1-oxoisoindolin-2-yl)piperidine-2,6-dione]
CK1α
  CK1α Ymin: D (D = >10- 25% remaining)
  DC50: < 0.025 µM
GSPT1
  DC50: ≥ 0.025 µM
  GSPT1 Ymin: F (F = >75-100% remaining)
